Source: patent US8937193B2, “Apogossypolone derivatives as anticancer agents” (Sanford-Burnham Medical Research Institute, priority 2009, dated 2015)
Like-named read-outs stand apart in the source and are kept apart here.

Tests used:
[1] = assay type: physicochemical
Description: The chemical stability of solid compounds may be evaluated at room temperature. The stability of the compound was monitored using a combination of HPLC and LCMS.

[2] = not given; remark: listed apart in the source
EC50 values of FIG. 3(B) = conditions: test not named
[3] = In vitro plasma stability; conditions: for Plasma Stability (T = 40 mins): Table 4
Description: (§1) To test the pharmacological properties of the compounds of Formula I, the in vitro plasma stability, microsomal stability, and cell membrane permeability may be determined.

[4] = administered orally (6a); cited from earlier work
primary CLL cells = assay: Annexin-V apoptosis assay, primary CLL cells; assay type: cell-based, human
Description: The apoptotic activity of the compounds against RS4;11, BP3 and primary CLL cells was assessed by staining with Annexin V-FITC and propidium iodide (PI). Cells were cultured in RPMI 1640 medium (Mediatech Inc., Herndon, Va. 20171) containing 10% fetal bovine serum (Mediatech Inc., Herndon, Va. 20171) and Penicillin/Streptomycin (Mediatech Inc., Herndon, Va. 20171). […] The percentage of viable cells was determined by FITC-Annexin V- and propidium iodide (PI)-labeling, using an Apoptosis Detection kit (BioVision Inc.), and analyzing stained cells by flow cytometry (FACSort; Bectin-Dickinson, Inc.; Mountain View, Calif.). Cells that were annexin-V-negative and PI-negative were considered viable.

Mcl-1 = Mcl-1 (Homo sapiens (Human), UniProt Q07820); assay: Fluorescence polarization competitive binding assay (FPA), Mcl-1; conditions: displacement of BH3 peptide
Mcl-1, sequence (Q07820 whole entry): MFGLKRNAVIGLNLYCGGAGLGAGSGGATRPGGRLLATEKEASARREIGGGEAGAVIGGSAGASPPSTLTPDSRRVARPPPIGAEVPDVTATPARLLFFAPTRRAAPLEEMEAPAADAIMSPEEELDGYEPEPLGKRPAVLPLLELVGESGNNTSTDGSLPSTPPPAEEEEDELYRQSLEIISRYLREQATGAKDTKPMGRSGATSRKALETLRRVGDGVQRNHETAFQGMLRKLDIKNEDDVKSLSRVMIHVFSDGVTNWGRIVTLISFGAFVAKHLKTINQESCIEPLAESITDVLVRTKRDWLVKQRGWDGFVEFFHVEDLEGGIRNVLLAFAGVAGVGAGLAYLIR
Description: (§2) For competitive binding assays, 100 nM GST-BCL-XL ΔTM protein was preincubated with the tested compound at varying concentrations in 47.5 μL PBS (pH=7.4) in 96-well black plates at room temperature for 10 min, then 2.5 μL of 100 nM FITC-labeled Bak BH3 peptide was added to produce a final volume of 50 μL. The wild-type and mutant Bak BH3 peptides were included in each assay plate as positive and negative controls, respectively. After 30 min incubation at room temperature, the polarization values in millipolarization units were measured at excitation/emission wavelengths of 480/535 nm with a multilabel plate reader (PerkinElmer). IC50 was determined by fitting the experimental data to a sigmoidal dose-response nonlinear regression model (SigmaPlot 10.0.1, Systat Software, Inc., San Jose, Calif., USA). Data reported are mean of three independent experiments±standard error (SE). […] Fluorescence polarization was measured after 10 min.

Bcl-XL [5] = target: T1, Bcl-XL (Homo sapiens (Human), UniProt Q07817); assay: 1D 1H-NMR binding assay against Bcl-XL; set-up: key: +++: Very Active; ++: Active; +: Mild; −: Weak; conditions: 4-point-rating scale, binding to Bcl-XL
Target sequence in this assay (Q07817 whole entry): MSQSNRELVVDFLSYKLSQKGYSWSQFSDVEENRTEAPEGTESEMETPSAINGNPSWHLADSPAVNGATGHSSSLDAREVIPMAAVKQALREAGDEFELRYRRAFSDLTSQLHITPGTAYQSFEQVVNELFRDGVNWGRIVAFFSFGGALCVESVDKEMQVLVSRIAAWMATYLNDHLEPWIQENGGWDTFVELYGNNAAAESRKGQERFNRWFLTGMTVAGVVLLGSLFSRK

Bcl-XL [6] = target: T1, Bcl-XL; assay: Fluorescence polarization competitive binding assay (FPA), Bcl-XL; conditions: displacement of BH3 peptide
Target sequence in this assay (Q07817 1-211): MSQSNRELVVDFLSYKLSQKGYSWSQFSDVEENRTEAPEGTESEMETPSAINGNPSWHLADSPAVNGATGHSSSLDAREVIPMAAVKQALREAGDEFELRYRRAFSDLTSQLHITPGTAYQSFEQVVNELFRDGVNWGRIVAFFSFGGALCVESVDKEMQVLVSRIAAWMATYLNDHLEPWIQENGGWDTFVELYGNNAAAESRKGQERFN
Description: as §2

PPC-1 xenograft tumors = assay: PPC-1 tumor xenograft study in nude mice
Description: Female 6-week-old nude mice were purchased from Charles River Laboratories. 5×10^6 PCC-1 cells suspended in 0.2 ml PBS were injected subcutaneously into a flank region of each nude mouse. Tumor bearing mice were size matched (200 mm^3) into treatment and control group, ear tagged, and monitored individually. Tumor volume was measured two to three times weekly by digital calipers (volume=length×width^2/2). All studies use 6 mice per group. […] Control mice received saline. The injections were given three times in first week, twice in second week and once in third week and a total of six injections were administered during the experiment. When all tumors of the control group exceed 2000 mm^3 in volume, the animal experiment was terminated. Tumor growth inhibition ratios (T/C %) were calculated by dividing the average tumor volume in the treatment group by the average tumor volume in the control group.

Bcl-2 = Bcl-2 (Homo sapiens (Human), UniProt P10415); assay: Fluorescence polarization competitive binding assay (FPA), Bcl-2; conditions: displacement of BH3 peptide
Bcl-2, sequence (P10415 whole entry): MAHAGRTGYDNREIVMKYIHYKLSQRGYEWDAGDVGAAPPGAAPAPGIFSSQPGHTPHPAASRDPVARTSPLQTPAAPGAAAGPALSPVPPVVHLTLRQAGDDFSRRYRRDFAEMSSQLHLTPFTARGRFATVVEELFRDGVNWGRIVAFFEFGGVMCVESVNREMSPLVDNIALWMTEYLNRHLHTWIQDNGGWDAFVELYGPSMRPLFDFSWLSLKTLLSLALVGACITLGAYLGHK
Description: as §2

Bfl-1 = Bfl-1 (Homo sapiens (Human), UniProt Q16548); assay: Fluorescence polarization competitive binding assay (FPA), Bfl-1; conditions: displacement of BH3 peptide
Bfl-1, sequence (Q16548 whole entry): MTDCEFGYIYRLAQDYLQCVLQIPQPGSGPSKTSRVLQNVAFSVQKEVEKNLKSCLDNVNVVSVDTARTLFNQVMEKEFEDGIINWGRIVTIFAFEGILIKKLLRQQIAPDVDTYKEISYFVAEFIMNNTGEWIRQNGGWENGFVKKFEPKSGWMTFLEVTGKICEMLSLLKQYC
Description: as §2

Bcl-XL [7] = target: T1, Bcl-XL; assay: Isothermal titration calorimetry (ITC), Bcl-XL; assay type: binding
Target sequence in this assay (Q07817 whole entry): as the sequence (Q07817 whole entry) above

[8] = In vitro microsomal stability; conditions: Table 4
Description: as §1

H460 cell line = conditions: pan-Bcl-2 family inhibitor from literature; cited from earlier work

| SMILES | Plasma Stability (T = 40 mins) [3] | IC50 (Mcl-1) | 1D-1H NMR (Bcl-XL [5]) | IC50 (Bcl-XL [6]) | IC50 (Bcl-2) | IC50 (Bfl-1) | Kd (Bcl-XL [7]) | also measured |
| --- | --- | --- | --- | --- | --- | --- | --- | --- |
| Cc1cc2c(C(C)C)c(O)c(O)cc2c(O)c1-c1c(C)cc2c(C(C)C)c(O)c(O)cc2c1O [Apogossypol] |  |  |  |  |  |  |  | degraded after 1 hour incubation in rat microsomal preparations: 36%; degraded after 60 days at room temperature [1]: ~80%; degraded after 1 hour incubation in rat plasma [2]: 47%; EC50 (EC50 values of FIG. 3(B)): 2800 nM |
| CC1=C(C2=C(C)C(=O)c3c(cc(O)c(O)c3C(C)C)C2=O)C(=O)c2cc(O)c(O)c(C(C)C)c2C1=O [Compound 6a, 6,6′,7,7′-tetrahydroxy-5,5′-diisopropyl-3,3′-dimethyl-2,2′-binaphthyl-1,1′,4,4′-tetraone, reference compound] | 77% | 540 ± 30 nM | +++ | 630 ± 20 nM | 370 ± 20 nM | 2170 ± 350 nM | 2800 nM | degraded after 1 hour incubation in rat plasma ([3]; 1 h, rat plasma (preparations)): 23%; maximum tolerated dose (MTD) [4]: above 240 mg/kg; LD50 primary CLL samples (primary CLL cells; comparison of 6c with 6a): > 30 µM; LD50 primary CLL samples (primary CLL cells; two primary CLL samples, one day Annexin-V apoptosis assay): > 30 µM; average body weight losses during the treatment (PPC-1 xenograft tumors; 50 mg/kg i.p.): 9.3%; weight loss in first week (PPC-1 xenograft tumors; 50 mg/kg i.p. three times in first week): ~5% |
| CC1=C(C2=C(C)C(=O)c3c(cc(O)c(O)c3CC(C)C)C2=O)C(=O)c2cc(O)c(O)c(CC(C)C)c2C1=O [Compound 6b, 6,6′,7,7′-tetrahydroxy-5,5′-diisobutyl-3,3′-dimethyl-2,2′-binaphthyl-1,1′,4,4′-tetraone] | 98% | 470 ± 30 nM | +++ | 550 ± 60 nM | 250 ± 20 nM | 1410 ± 110 nM | 1500 ± 800 nM | Microsomal Stability (T = 40 mins) [8]: 69% |
| COC1=CC(c2cc3ccccc3[nH]2)=N/C1=C\c1[nH]c(C)cc1C [GX15-070] |  |  |  |  |  |  |  | IC50 (H460 cell line): 3850 nM |
